In patent publication US20130143742A1, “HERBICIDAL COMPOSITION” (SUMITOMO CHEMICAL COMPANY, LIMITED, priority 2011, published 2013):
Counter-ions that a name gives are not always drawn.

Tests used:
[1] = system: barnyardgrass (Echinochloa crus-galli); test: Example 4: herbicidal activity, soil treatment, weed sown 9 days after treatment; assay type: in vivo; details: score 0 to 100; 1,000 g/ha; 29 days after the chemical treatment (20 days after sowing)
Experimental: (§1) Plastic pots each having a diameter of 24 cm and a height of 21 cm were filled with the soil. A water dilution of a glyphosate potassium salt (liquid formulation containing 48% of a glyphosate potassium salt, manufactured by Nissan Chemical Industries, Ltd. under the trade name of Roundup Maxload) was prepared. A mixed solution of a water dilution of a flumioxazin water dispersible granule (water dispersible granule containing 51% of flumioxazin, manufactured by Valent USA Corporation under the trade name of Valor SX) and a water dilution of a saflufenacil was prepared. A mixed solution of a water dilution of a glyphosate potassium salt, a water dilution of a flumioxazin water dispersible granule and a water dilution of Saflufenacil was prepared. Each of the solutions thus prepared above was uniformly sprayed over the pots using a sprayer in an amount of 500 L/ha. The water dilution of saflufenacil was prepared by dissolving a predetermined amount of saflufenacil in acetone containing 2% (w/v) of Tween 20 (surfactant, manufactured by Tokyo Chemical Industry Co., Ltd.) and diluting the solution with water so that the acetone concentration will be 10 volume %.
(§2) After a chemical treatment, the pots were put in a greenhouse. […]
Seedlings of the plant were cultivated in the greenhouse and, 29 days after the chemical treatment (20 days after sowing), herbicidal activity was evaluated.

[2] = system: ivyleaf morningglory (Ipomoea hederacea); test: Example 3: herbicidal activity, soil treatment, weed sown 21 days after treatment; assay type: in vivo; details: score 0 to 100; 20 g/ha; 45 days after the chemical treatment (24 days after sowing)
Experimental: as §1, with “of saflufenacil” for “of a glyphosate potassium salt (liquid formulation containing 48% of a glyphosate potassium salt, manufactured by Nissan Chemical Industries, Ltd. under the trade name of Roundup Maxload)”, “a glyphosate potassium salt (liquid formulation containing 48% of a glyphosate potassium salt, manufactured by Nissan Chemical Industries, Ltd. under the trade name of Roundup Maxload)” for “a saflufenacil”, “of saflufenacil,” for “of a glyphosate potassium salt,”, “of a glyphosate potassium salt” for “of Saflufenacil”
as §2
Seedling of the plant were cultivated in the greenhouse and, […] after the chemical treatment (24 days after sowing), herbicidal activity was evaluated.

SMILES | Herbicidal activity Barnyardgrass [1] | Herbicidal activity Ivyleaf morningglory [2]
O=C(O)CNCP(=O)(O)O [Glyphosate potassium salt, glyphosate-potassium] | 0 | –
CC(C)N(C)S(=O)(=O)NC(=O)c1cc(-n2c(=O)cc(C(F)(F)F)n(C)c2=O)c(F)cc1Cl [Saflufenacil, N′-{2-chloro-4-fluoro-5-[1,2,3,6-tetrahydro-3-methyl-2,6-dioxo-4-(trifluoromethyl)pyrimidin-1-yl]benzoyl}-N-isopropyl-N-methylsulfamide] | – | 45
